{"source": "patent US12311060B2", "about": "(priority 2017, dated 2025)", "origin": "cited, not measured here", "details": "rodent models", "data": [{"smiles": "C/C=C1\\C2C=C(C)C[C@]1(N)c1ccc(=O)[nH]c1C2", "note": "(stereo in doubt) [huperzine A, (1R,9S,13E)-1-amino-13-ethylidene-11-methyl-6-azatricyclo[7.3.1.02,7]trideca-2(7),3,10-trien-5-one]", "values": [{"measurement": "efficacy as an anticonvulsant in words", "result": "very high efficacy"}]}]}
